In US6838592B1, “Methods for the identification of compounds for the treatment of alzheimer's disease” (Nathan S. Kline Institute for Psychiatric Research, priority 1999, dated 2005):
“Also recorded” adds a separate entry of the source. Each block holds one molecule with its values, some of them ahead of it. Non-standard residues stand in square brackets, D forms with d. Residues, ends and D or L forms follow the SMILES beside them. *: point of attachment. Sta = CC(C)C[C@H](N)[C@@H](O)CC(=O)O; Isovaleryl = CC(C)CC(=O)*

How the values were obtained:
[1] = system: lipofuscin-like material in neurons; settings: chronic inhibition (7+days) by infusion; cited from earlier work
[2] = biological target: T1, Cat D (Mus musculus, UniProt P18242); test: Cat D activity in brains of PS1M146L/APPswe transgenic mice infused with protease inhibitor; assay type: in vivo; settings: 2 mg/mL pepstatin or 10 mg/mL leupeptin, vs untreated
T1 construct: from tissue; host or cells: mouse brain (sections and hemi-brain homogenates)
Method: To administer the candidate compounds in the presence or absence of inhibitor(s), eight week old mice are anesthetized with pentobarbital (40-50 mg/kg i.p.) and placed in a stereotaxic apparatus with mouse adapter (David Kopf Instruments, Tujunga, Calif.). After sacrifice, placement of the probe into the lateral ventricle is confirmed and one hemi-brain immersion-fixed and the other hemi-brain homogenized for protease assays. We determine the efficacy of the candidate compound by assaying the activity of proteases in brain homogenates (e.g., Cat B, Cat L, Cat D, and trypsin (Brunk et al., Free Radic. Biol. Med. 19:813-822, 1995; Marotta and Nixon, J. Neurochem. 43:507-516, 1984; Koshikawa et al., Am. J. Pathol. 153:937-944, 1998); see, for example, Cat D shown in FIG. 11F). […] Lipofuscin granules are defined at the EM level as having a single layer of membrane and a bipartite structure consisting of electron lucent lipoid material and electron dense material (Cataldo and Nixon, Ann. N.Y. Acad. Sci. 679: 87-109, 1993).
We also performed protease inhibitor infusion experiments in PS1M146L/APPswe transgenic mice. […] Animals were sacrificed at 12 weeks of age, and total Aβ levels were determined by ELISA following formic acid extraction (FIG. 10A). […] We have additionally measured the activity of Cat D in the brains of untreated, pepstatin-treated, or leupeptin-treated mice (FIG. 10B).

[3] = system: Aβ; test: Total Aβ by ELISA after formic acid extraction in PS1M146L/APPswe transgenic mice infused with protease inhibitor; assay type: in vivo; settings: infusion from 8 to 12 weeks of age
Method: We also performed protease inhibitor infusion experiments in PS1M146L/APPswe transgenic mice. Infusion pumps containing either 2 mg/mL pepstatin or 10 mg/mL leupeptin were implanted into PS1M146L/APPswe transgenic mice at 8 weeks of age. Animals were sacrificed at 12 weeks of age, and total Aβ levels were determined by ELISA following formic acid extraction (FIG. 10A). […] Leupeptin treatment, on the other hand, increased total Aβ by 1.8 times when compared to untreated mice. We have additionally measured the activity of Cat D in the brains of untreated, pepstatin-treated, or leupeptin-treated mice (FIG. 10B).
The Aβ sandwich ELISA is generally known to those skilled in the art, with both Aβ ELISA kits (Biosource International, Camavillo, Calif.) and appropriate antibodies (e.g., 4G8, GE10; Seneteck, PLC, Napa, Calif.) available commercially. For the Aβ sandwich ELISA, Nunc-Immuno Plates (Nunc A/S Roskilde, Denmark) were coated overnight at […] using antibodies specific for Aβ40 or Aβ42 in 100 mM bicarbonate buffer, pH 9.6. […] Aβ was detected by incubating for 4 hours at room temperature with an HPR-conjugated anti-Aβ antibody in 20 mM Na phosphate, 2 mM EDTA, 400 mM NaCl, 1.0% BSA. ELISA plates were developed using a color reaction (ABTS Peroxidase Substrate System, Kirkegaard & Perry, Gaithersburg, Md.) and the OD450 read.

[4] = system: cortical mantle; test: Nissl staining and cortical mantle thickness in PS1M146L/APPswe transgenic and non-transgenic mice infused with leupeptin; assay type: in vivo
Method: (§1) Several studies have recently raised the possibility that abnormal forms of tau is metabolized in lysosomes. […] There are numerous assays for tau known in the art. For example, the processing of tau by immunocytochemistry and Western blot analysis is performed using an antibody that recognizes both phosphorylated and non-phosphorylated forms (Adamec et al., Brain Res. 757:93-101, 1997). Abnormal tau conformation and hyperphosphorylated tau is examined using suitable monoclonal antibodies. (e.g., MC1 (Jicha et al., J. Neurosci. Res. 48:128-132) and AT8 (Innogenetics, Gent, Belgium)). EM analysis can be performed to characterize cytoskeletal changes in neurons (Nixon, Bioessays 20:798-807, 1998). Alternatively, the magnitude of neurodegeneration in the mice can be determined by Nissl stain.
As a second example of the usefulness of inducing lysosomal system dysfunction by protease inhibitor infusion, we treated PS1M146L/APPswe transgenic mice, an established model of AD-like pathology (Duff et al., Nature 383:710-713, 1996). Infusion pumps containing 5 mg/mL leupeptin were implanted into PS1M146L/APPswe transgenic mice at 1 year of age. Animals were sacrificed 4 weeks later.
We confirmed this observation by measuring the thickness of the cortical mantle in these mice (FIG. 15). […] One current limitation of the existing mouse models of AD is their failure to show substantial neuronal atrophy and/or neuronal cell loss, key features of the disease in humans.

[5] = system: tau; test: Western blot analysis of tau in brain of leupeptin-infused mice; assay type: in vivo
Method: as §1

[6] = system: lipofuscin; test: Lipofuscin autofluorescence in fixed brain tissue after intraventricular leupeptin infusion; assay type: in vivo, mice; settings: 5 mg/mL leupeptin, four weeks, vs vehicle (20 mM HEPES)

T1 sequence (P18242 65-410): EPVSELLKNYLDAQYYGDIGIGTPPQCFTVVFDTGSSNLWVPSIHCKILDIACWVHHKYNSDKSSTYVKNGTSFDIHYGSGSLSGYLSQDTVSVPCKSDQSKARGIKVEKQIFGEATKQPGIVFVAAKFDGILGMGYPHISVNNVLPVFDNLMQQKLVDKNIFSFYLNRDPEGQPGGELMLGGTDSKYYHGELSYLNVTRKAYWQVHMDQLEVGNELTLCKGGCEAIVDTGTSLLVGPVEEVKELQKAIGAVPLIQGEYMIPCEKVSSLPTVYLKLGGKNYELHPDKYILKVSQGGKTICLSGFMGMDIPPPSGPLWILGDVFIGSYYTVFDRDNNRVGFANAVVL

Molecule: CCN(CC)CCCC(C)Nc1ccnc2cc(Cl)ccc12 (stereo not drawn) [chloroquine]
accumulation of lipofuscin-like material in neurons [1]: results in accumulation of lipofuscin-like material in neurons

Molecule: CC(=O)N[C@@H](CC(C)C)C(=O)N[C@@H](CC(C)C)C(=O)N[C@H](C=O)CCCNC(=N)N [leupeptin]
accumulation of lipofuscin-like material in neurons [1]: results in accumulation of lipofuscin-like material in neurons
activity of Cat D in the brain [2]: increased Cat D activity
total Aβ increase compared to untreated mice ([3]; 10 mg/mL leupeptin): 1.8 times
reduction of thickness of the cortex ([4]; PS1M146L/APPswe mouse, 5 mg/mL leupeptin, 4 weeks): over 20%
Nissl staining of cortex ([4]; PSM146L/APPswe mouse, 5 mg/mL leupeptin, 4 weeks, vs non-transgenic littermate also infused with leupeptin): substantial cortical neuronal hypotrophy, chromatolysis and possibly loss of neurons
thickness of the cortical mantle ([4]; non-transgenic mouse, leupeptin vs vehicle): small decrease
lower molecular weight forms of tau (Mr~30-34 kDa) by Western blot [5]: increase in the lower molecular weight forms of tau
lipofuscin autofluorescence [6]: increase in lipofuscin autofluorescence; also recorded: lipotuscin autofluorescence in sections of leupeptin-treated but not vehicle-treated brains

activity of Cat D in the brain [2]: reduced activity of Cat D
Molecule: CC(C)CC(=O)N[C@H](C(=O)N[C@H](C(=O)N[C@@H](CC(C)C)[C@@H](O)CC(=O)N[C@@H](C)C(=O)N[C@@H](CC(C)C)[C@@H](O)CC(=O)O)C(C)C)C(C)C [pepstatin] (Isovaleryl-VV[Sta]A[Sta]-OH)
total Aβ level relative to untreated mice ([3]; 2 mg/mL pepstatin): reduced to half the level

Molecule: aprotinin
accumulation of lipofuscin-like material in neurons [1]: does not
